Data: PMC7724566, “Prospects for Clinical Development of Stat5 Inhibitor IST5-002: High Transcriptomic Specificity in Prostate Cancer and Low Toxicity In Vivo” (Cancers, 2020)

Assays:
[1] = system: Stat5; experiment: Stat5 phosphorylation in cancer cells (summary); type: cell-based, human; conditions: read-out: IC50, inhibition of Stat5 phosphorylation, range over cell lines
Description: Down-regulation of Stat5 phosphorylation by IST5 can theoretically be caused by IST5 blocking Stat5 monomer docking to the activated receptor-Jak2 complex (Figure 1) and/or by IST5 inhibition of Jak2 kinase activity. […] To further investigate whether IST5 is able to disrupt dimerization of Stat5 molecules, we employed two separate cell-based assays. […] Because both phosphorylation and dimerization of Stat5 were inhibited at similar concentrations of IST5, it is difficult to determine whether disruption of Stat5 dimerization by IST5 is caused by suppression of Stat5 phosphorylation or a direct effect of IST5 in hindering Stat5 dimer-formation or both events occurring at the same time in the cell. However, it is known that heteromolecular interactions are easier to disrupt than interactions between two Stat5 monomers implying that the primary mechanism of action of IST5 may be suppression of Stat5 docking to the receptor-kinase complex. It is important to note that bypassing tyrosine kinases responsible for Stat5 phosphorylation by utilizing direct Stat5 inhibitor would be advantageous for therapy development for Stat5-regulated cancers because targeting Stat5 directly is likely to cause less off-target side effects than targeting kinases or cell surface receptors.

[2] = molecular target: JAK2 (Homo sapiens, UniProt O60674); experiment: Radiometric filtration binding cell-free kinase assay; type: biochemical; parameters: purchased Reaction Biology (JAK1/2/3, TYK2); Luceome Biotechnologies KinaseSeeker (others); conditions: percent activity of kinase after exposure to IST5 1 µM
Sequence of JAK2 (O60674 whole entry, the tested form may be a part): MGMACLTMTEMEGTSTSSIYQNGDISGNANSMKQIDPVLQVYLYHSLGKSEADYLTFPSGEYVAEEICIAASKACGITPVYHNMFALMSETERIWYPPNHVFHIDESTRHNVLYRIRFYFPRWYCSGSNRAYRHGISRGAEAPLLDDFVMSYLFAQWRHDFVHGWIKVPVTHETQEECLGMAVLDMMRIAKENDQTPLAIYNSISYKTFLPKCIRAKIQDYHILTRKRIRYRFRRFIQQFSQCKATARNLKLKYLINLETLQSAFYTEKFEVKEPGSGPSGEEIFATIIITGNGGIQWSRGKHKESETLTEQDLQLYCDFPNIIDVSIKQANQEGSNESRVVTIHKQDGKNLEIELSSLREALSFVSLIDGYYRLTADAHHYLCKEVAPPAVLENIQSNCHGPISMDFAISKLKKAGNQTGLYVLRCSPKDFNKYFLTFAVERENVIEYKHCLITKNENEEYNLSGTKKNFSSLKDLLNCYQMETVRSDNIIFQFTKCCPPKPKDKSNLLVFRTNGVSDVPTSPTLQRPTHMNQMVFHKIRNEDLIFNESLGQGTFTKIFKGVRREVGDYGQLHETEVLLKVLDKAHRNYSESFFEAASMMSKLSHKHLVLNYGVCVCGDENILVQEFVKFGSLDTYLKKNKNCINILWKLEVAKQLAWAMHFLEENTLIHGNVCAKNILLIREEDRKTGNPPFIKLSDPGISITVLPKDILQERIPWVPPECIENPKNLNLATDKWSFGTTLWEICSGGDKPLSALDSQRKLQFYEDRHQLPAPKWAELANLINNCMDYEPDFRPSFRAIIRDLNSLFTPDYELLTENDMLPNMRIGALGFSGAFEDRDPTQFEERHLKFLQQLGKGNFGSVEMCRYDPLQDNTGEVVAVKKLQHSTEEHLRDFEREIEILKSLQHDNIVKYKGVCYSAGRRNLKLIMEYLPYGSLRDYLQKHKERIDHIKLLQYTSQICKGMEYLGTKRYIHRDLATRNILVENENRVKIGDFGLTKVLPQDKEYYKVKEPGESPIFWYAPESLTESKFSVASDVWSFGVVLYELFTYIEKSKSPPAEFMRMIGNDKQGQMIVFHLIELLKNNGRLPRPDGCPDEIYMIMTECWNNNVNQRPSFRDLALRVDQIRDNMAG
Procedure: For Jak1, Jak2, Jak3 and Tyk2, a radiometric filtration binding assay was conducted by Reaction Biologicals (Malvern, PA, USA) (Table 1). This radiometric assay is a cell-free assay which is based on conventional filter-binding assays, directly measuring kinase catalytic activity toward a specific substrate. For evaluation of the activity of the other kinases, the Kinase Seeker Technology was utilized (Luceome Biotechnologies, Tucson, AZ, USA), which is a luminescence-based cell-free assay. In this assay, the reassembly of luciferase fragments is mediated by the interaction of a kinase with an active site-dependent probe. The competitive displacement of the probe by an inhibitor is measured by a change in luminescence signal. Percent activity of each kinase after exposure to IST5 (1 µM) is presented.

[3] = system: PC cells; parameters: method as in PMID 18316550, PMID 23942095, PMID 26362718, PMID 20966544, PMID 20233708; conditions: cited from earlier work
[4] = system: athymic nude mice; experiment: Acute toxicity study, plasma biochemistry; type: in vivo; conditions: for ALT / AST / Albumin / Alk.Ptase / BUN / Bile Acid / Chol / Globulin / TBIL: plasma
Procedure: The acute toxicity study of the compound IST5 was carried out in athymic nude mice (8 weeks) (Crl:NU/NCr-Foxn1n) of either sex (n = 8/dose group, 4 of each sex). IST5 compound was administered once (0, 10, 30, and 100 mg/kg) via single intra-peritoneal (i.p.) injection, and the mice in the vehicle (0 mg/kg) group received each a single i.p. injection of 0.3% hydroxypropyl cellulose. Plasma samples were analyzed for liver (AST, […], alkaline phosphatase, total bilirubin, bile acid) and kidney functions (BUN, albumin, globulin and albumin-globulin ratio) (Marshfields Labs, WI, USA).
The following clinical chemistry parameters were measured: Aspartate aminotransferase (AST), alanine aminotransferase (ALT), sorbitol dehydrogenase (SDH), alkaline phosphatase (ALP), γ-glutamyltransferase (GGT), lactate dehydrogenase (LDH), bilirubin (TBIL), protein (TP), glucose (GLU), blood urea nitrogen (BUN), creatinine (CREAT), and electrolytes (Na, K, Cl, Ca, CO2).

For `O=P(O)(O)OCC1OC(n2cnc3c(NCc4ccccc4)ncnc32)C(O)C1O` (stereo not shown) [IST5], the IC50 [1] is given as 1.1 to 1.3 µM, the Activity [2] is given as 95.4% and the “apoptotic death of PC cells” value [3] is given as “induce extensive apoptotic death”. The BW ([4]; single i.p. 10 mg/kg) was 22.8 ± 0.79 g, the ALT ([4]; single i.p. 10 mg/kg) was 62.1 ± 11.0 U/L and the AST ([4]; single i.p. 10 mg/kg) was 284 ± 78.7 U/L. For the same compound, the Albumin ([4]; single i.p. 10 mg/kg) was 3.25 ± 0.01 g/dL, the Alk.Ptase ([4]; single i.p. 10 mg/kg) was 43.17 ± 3.5 U/L and the BUN ([4]; single i.p. 10 mg/kg) was 27.67 ± 1.4. The “Bile Acid” value ([4]; single i.p. 10 mg/kg) was 0.88 ± 0.40 µmol/dL, the Chol ([4]; single i.p. 10 mg/kg) was 67.80 ± 5.0 mg/dL and the Globulin ([4]; single i.p. 10 mg/kg) was 1.4 ± 0.01. The TBIL ([4]; single i.p. 10 mg/kg) was 0.51 ± 0.10 mg/dL, the BW ([4]; single i.p. 30 mg/kg) was 21.9 ± 089 g and the ALT ([4]; single i.p. 30 mg/kg) was 100 ± 23.9 U/L. The AST ([4]; single i.p. 30 mg/kg) was 488 ± 168 U/L, the Albumin ([4]; single i.p. 30 mg/kg) was 4.16 ± 0.59 g/dL and the Alk.Ptase ([4]; single i.p. 30 mg/kg) was 57.0 ± 6.82 U/L. The BUN ([4]; single i.p. 30 mg/kg) was 29.6 ± 1.79, the “Bile Acid” value ([4]; single i.p. 30 mg/kg) was 3.35 ± 2.87 µmol/dL and the Chol ([4]; single i.p. 30 mg/kg) was 182 ± 57.8 mg/dL. For the same compound, the Globulin ([4]; single i.p. 30 mg/kg) was 1.4 ± 0.08, the TBIL ([4]; single i.p. 30 mg/kg) was 1.16 ± 0.43 mg/dL and the BW ([4]; single i.p. 100 mg/kg) was 22.0 ± 0.97 g. It also gave an HCT ([4]; single i.p. 100 mg/kg) of 0.44 ± 0.01 L/L, an ALT ([4]; single i.p. 100 mg/kg) of 73.2 ± 15.4 U/L and an AST ([4]; single i.p. 100 mg/kg) of 377 ± 96.7 U/L. It also gave an Albumin ([4]; single i.p. 100 mg/kg) of 3.32 ± 0.15 g/dL, an Alk.Ptase ([4]; single i.p. 100 mg/kg) of 55.8 ± 5.42 U/L and a BUN ([4]; single i.p. 100 mg/kg) of 28.6 ± 1.14. The “Bile Acid” value ([4]; single i.p. 100 mg/kg) was 2.52 ± 1.28 µmol/dL, the Chol ([4]; single i.p. 100 mg/kg) was 89.4 ± 5.91 mg/dL and the Globulin ([4]; single i.p. 100 mg/kg) was 1.28 ± 0.10. It also gave a TBIL ([4]; single i.p. 100 mg/kg) of 0.62 ± 0.09 mg/dL.
